From US11077141B2, “Anti-tumor T cell immunity induced by high dose radiation” (The Board of Trustees of the Leland Stanford Junior …, priority 2012, dated 2021)

Assays:
CT26 luc+ tumor cells = test: Bioluminescence imaging of luciferase transduced CT26 tumors in RAG2-/- mice given LTI and CY with or without T cells; set-up: species or system BALB/c RAG2-/- mice; conditions: mouse, in vivo
Text: Cell lines. The CT26 cell line (an N-nitro-N-methylurethane-induced BALB/c murine colon carcinoma) was purchased from ATCC (Manassas, Va.). The 4T1 cell line (spontaneously arising) was also obtained from ATCC. The 4T1-LUC/GFP and CT26-LUC/GFP cell lines were lentiviraly transduced. The lentiviral vector pHR-IG was made by Dr. Yoshitaka Akagi. The GFP-firefly luciferase fusion (GLF) gene was subcloned from pJW.GFP-yLuc (kindly provided by Dr. M. H. Bachmann) into pHR2 to generate pHR2-GLF. Lentiviral particles expressing GLF were prepared as described before. […]. WT 4T1 and CT26 cells were seeded in a 6 well plate at 0.25×10^6 cells/well and incubated overnight in a 37° C. incubator. Titrated virus was then used to transduce the cell lines in the presence of protamine sulfate (10 μg/ml) to enhance transduction efficiency. Stable lentiviral transductants were then sorted 4 times for GFP fluorescence (100% purity) using a FACS DIVA cell sorter. Sorted cells were expanded and screened for bioluminescence using an Xenogen IVIS spectrum (Caliper Life Sciences; Hopkinton, Mass.), as well as GFP. Cell lines were maintained in RPMI-1640 complete medium supplemented with 10% fetal calf serum, L-glutamine, 2 mercaptoethanol, streptomycin and penicillin.
In vivo BLI imaging. In vivo BLI was performed according to the method of Edinger et al. Briefly, mice were injected intraperitoneally with luciferin ([…]). Ten minutes later, mice were imaged using an IVIS100 charge-coupled device imaging system (Xenogen) for 5 minutes. Imaging data were analyzed and quantified with Living Image software (Xenogen).

4T1 luc+ breast tumor = test: 4T1 breast tumor metastasis model: LTI (3 daily doses of 20 Gy), CY and cryopreserved autologous T cells; assay type: in vivo, BALB/c mice; conditions: 21 day 4T1 tumors; 3 daily doses of 20 Gy LTI, then single dose of CY
Experimental: Irradiation. […] For local tumor irradiation, unanesthetized mice were placed in lead jigs through which established tumors in the hind quarter were protruded for irradiation to an area of approximately 2 cm diameter. Irradiation was performed with a Phillips X-ray unit operated at 200 kV with the dose rate of 1.21 Gy/min (20 mÅ with added filtration of 0.5 mm copper, the distance from X-ray source to the target of 31 cm, and a half value layer of 1.3 mm copper).
Enriched cells were stained with anti-TCR-allophycocyanin (APC) and anti-CD4 or anti-CD8-fluorescein isothiocyanate (FITC) mAbs to check for purity, and preparations were uniformly at least 95% pure.
FACS Aria (Becton Dickinson, Mountain View, Calif.) was used for analysis with FlowJo software (TreeStar, Ashland, Oreg.). After sorting cells were checked by FACS reanalysis and determined to be >99% pure. Collected T cells were cryopreserved with 10% DMSO and frozen in liquid nitrogen.
In vivo BLI imaging. In vivo BLI was performed according to the method of Edinger et al. Briefly, mice were injected intraperitoneally with luciferin (10 μg/g body weight). Ten minutes later, mice were imaged using an IVIS100 charge-coupled device imaging system (Xenogen) for 5 minutes. Imaging data were analyzed and quantified with Living Image software (Xenogen).

CT26 tumors = test: Survival of CT26 tumor-bearing RAG-2-/- mice given 30 Gy LTI with or without CY and T cells; assay type: in vivo, BALB/c RAG2-/- mice; conditions: 30 Gy LTI at day 21
Experimental: Animals. Wild-type male BALB/c (H-2^d) mice, and male BALB/c RAG2^−/− mice, were purchased from Jackson Laboratories (Bar Harbor, Me.). Mice were 5-8 weeks old.
Irradiation. Total body irradiation was performed with a Philips X-ray unit (200 kV, 10 mA; Philips Electronic Instruments Inc., Rahway, N.J.) at a rate of 84 cGy/min with a 0.5 mm Cu filter. For local tumor irradiation, unanesthetized mice were placed in lead jigs through which established tumors in the hind quarter were protruded for irradiation to an area of approximately 2 cm diameter. Irradiation was performed with a Phillips X-ray unit operated at 200 kV with the dose rate of 1.21 Gy/min (20 mÅ with added filtration of 0.5 mm copper, the distance from X-ray source to the target of 31 cm, and a half value layer of 1.3 mm copper).
Cell preparation, splenectomy, and collection of T cells for autologous transplantation. Single cell suspensions of bone marrow and spleen were prepared according to previously described procedures. […]
FACS Aria (Becton Dickinson, Mountain View, Calif.) was used for analysis with FlowJo software (TreeStar, Ashland, Oreg.). After sorting cells were checked by FACS reanalysis and determined to be >99% pure. […]

With `O=P1(N(CCCl)CCCl)NCCCO1` (stereo not shown) [CY, cyclophosphamide] the “day by which all of the mice died” value (CT26 luc+ tumor cells) was at most 107, the “death or survival of mice by day 35” value (CT26 luc+ tumor cells) was 2 of 5 and the “tumor signal / tumor growth by BLI” value (CT26 luc+ tumor cells) was “continued tumor growth”. The “mice died by day 84” value (4T1 luc+ breast tumor) was 6 of 8, the “mice relapsed at day 98” value (4T1 luc+ breast tumor) was 1 and the tumor growth (4T1 luc+ breast tumor) was “progression of tumor growth was slowed”. For the same molecule, the “survival (none of the mice survived beyond)” value (CT26 tumors) was at most 80 days.
